# Data reported in US20240158383A1, “RIBONUCLEOTIDE REDUCTASE (RNR) INHIBITORS AND USES THEREOF” (Boundless Bio, Inc., priority 2021, published 2024).
# pIC50: −log10 of the molar value.
# Experiments:
# [1] = tested on: pCHK1 (S345) in Colo320 DM cells; assay: CHK1 cellular activity (phospho-CHK1 AlphaLisa); format: cell-based, human; conditions: compound overnight (approximately 16 hours)
# Description: Phospho-CHK1 cellular activity was measured as a marker of replication stress which is a consequence of RNR inhibition.
# Colo320 DM cells (ATCC #CCL-220, derived from human colorectal adenocarcinoma, Dukes' type C) were seeded on a 96-well cell culture treated assay plate at a density of 50,000 cells/well in 200 μL of RPMI-1640 media supplemented with 10% Fetal Bovine Serum and incubated at 37 degrees Celsius overnight. The following day, test compound dilutions were added directly to the plated cells by a Tecan digital dispenser to a final DMSO concentration of <0.5% and incubated at 37 degrees Celsius overnight (approximately 16 hours). The following day all culture media is removed from the cells. 75 μL of 1× AlphaLisa lysis buffer is added to each well and plates are agitated on a shaker for 30 minutes at room temperature. The lysis of cells and detection of pCHK1 (S345) are performed with reagents contained within the AlphaLisa Sure Fire assay kit (Perkin Elmer #ALSU-PCHK1-A) according to the manufacturer's instructions. 10 μL of each lysate was then transferred to a white, 384-well assay plate (Perkin Elmer #6008280). 5 μL of Acceptor mix was then added to each well of lysate in the white, 384-well assay plate and incubated in the dark at room temperature for 60 minutes. 5 μL of Donor mix was then added to each well of the white, 384-well assay plate in subdued light and incubated at room temperature for 60 minutes. Plates are read on an Alpha Technology-compatible plate reader using standard AlphaLisa settings.
# [2] = molecular target: RNR (RNR1:RNR2) (Homo sapiens (Human), UniProt P23921+P31350); assay: RNR enzyme activity, rapid-fire mass spectrometry (RFMS) assay; format: biochemical; conditions: [RNR] 50 nM, 1:1 RNR1:RNR2, [CDP] 5 μM, [ATP] 1 mM, 37° C., 45 min
# Chain of RNR (RNR1:RNR2) (P23921 whole entry): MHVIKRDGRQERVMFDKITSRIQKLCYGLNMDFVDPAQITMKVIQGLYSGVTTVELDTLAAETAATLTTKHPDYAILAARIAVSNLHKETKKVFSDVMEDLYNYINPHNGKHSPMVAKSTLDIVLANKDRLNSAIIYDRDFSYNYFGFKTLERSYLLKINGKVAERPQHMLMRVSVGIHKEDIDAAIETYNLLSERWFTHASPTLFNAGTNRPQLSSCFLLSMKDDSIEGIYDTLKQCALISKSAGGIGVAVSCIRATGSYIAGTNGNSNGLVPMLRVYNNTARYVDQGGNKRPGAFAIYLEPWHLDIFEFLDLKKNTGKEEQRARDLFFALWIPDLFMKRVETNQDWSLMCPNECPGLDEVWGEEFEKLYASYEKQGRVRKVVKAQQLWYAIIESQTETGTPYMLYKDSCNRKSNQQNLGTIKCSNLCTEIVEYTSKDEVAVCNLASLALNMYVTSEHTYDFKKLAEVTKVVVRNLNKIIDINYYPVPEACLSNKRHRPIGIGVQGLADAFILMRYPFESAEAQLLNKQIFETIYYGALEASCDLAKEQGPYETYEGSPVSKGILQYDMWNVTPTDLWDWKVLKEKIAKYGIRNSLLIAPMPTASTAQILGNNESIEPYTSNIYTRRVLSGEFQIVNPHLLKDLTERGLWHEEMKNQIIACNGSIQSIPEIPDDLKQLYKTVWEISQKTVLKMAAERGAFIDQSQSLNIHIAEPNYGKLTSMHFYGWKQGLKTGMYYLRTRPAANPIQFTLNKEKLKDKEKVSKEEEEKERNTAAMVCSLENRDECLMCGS
# Chain of RNR (RNR1:RNR2) (P31350 whole entry): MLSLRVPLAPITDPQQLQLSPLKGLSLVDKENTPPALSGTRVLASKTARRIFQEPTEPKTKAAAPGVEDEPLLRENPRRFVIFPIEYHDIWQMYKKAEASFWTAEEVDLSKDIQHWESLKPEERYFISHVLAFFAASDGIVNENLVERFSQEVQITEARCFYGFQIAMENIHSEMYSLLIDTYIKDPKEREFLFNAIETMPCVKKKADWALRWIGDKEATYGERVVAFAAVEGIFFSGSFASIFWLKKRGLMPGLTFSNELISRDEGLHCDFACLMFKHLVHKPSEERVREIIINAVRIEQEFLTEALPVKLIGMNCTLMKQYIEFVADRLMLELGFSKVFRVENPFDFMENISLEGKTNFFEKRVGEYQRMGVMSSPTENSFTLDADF
# Description: A rapid-fire mass spectrometry (RFMS) assay was used to assess RNR enzyme activity using a 384 well plate and a robotic platform.
# The plate layout included two validated reference compounds (Triapine (3-AP) and Hydroxyurea (HU)): • A dose response in duplicate; top concentration: 5 μM (3-AP) and 250 μM (HU), semi-log • dilutions. • Spike wells in triplicate randomly spotted at four concentrations: • 250 μM, 100 μM, 30 μM and 2 μM for HU • 5 μM, 2 μM, 0.6 μM and 0.04 μM for 3-AP
# First, the multidrop pipes were saturated for 30 minutes with enzymatic solution. Then 30 μL of Stop solution was distributed in column 24. Next, 15 μL of enzyme was distributed in column 1 to 24. Next, a pre-incubation step of 15 minutes at room temperature occurred, followed by distribution of 15 μL of substrate solution (column 1 to 24). Next, the plate was incubated for 45 minutes at 37° C. 30 μL of Stop solution was distributed to columns 1 to 23.
# The final parameters for the enzyme reactions were: • Incubation: 37° C., 45 min • [CDP]: 5 μM; [ATP]: 1 mM; [NADPH]: No • [RNR]final: 50 nM with 1:1 (RNR1:RNR2) ratio • Final volume: 30 μL • Stop solution: 6% HCOOH containing 2 μM of 15
# The compounds were screened at concentrations from 10 nM to 30 μM.
SMILES,"pIC50 ([1]; Homo sapiens, COLO 320DM, 16 h)",pIC50 [2],pIC50 [1]
"Cc1ccc(F)c([C@@H](C)[C@H](NS(=O)(=O)c2ccc(Cl)c([C@H](F)C(=O)N(C)C)c2)c2nn[nH]n2)c1C [Example 67, (S)-2-(2-chloro-5-(N-((1S,2R)-2-(6-fluoro-2,3-dimethylphenyl)-1-(2H-tetrazol-5-yl)propyl)sulfamoyl)phenyl)-2-fluoro-N,N-dimethylacetamide]",4.00 to 4.30,,
"Cc1ccc(F)c([C@@H](C)[C@H](NS(=O)(=O)c2c(F)cc(Cl)cc2F)c2nn[nH]n2)c1C [Example 56, 4-chloro-2,6-difluoro-N-((1S,2R)-2-(6-fluoro-2,3-dimethylphenyl)-1-(2H-tetrazol-5-yl)propyl)benzenesulfonamide]",4.00 to 4.30,6.00 to 7.00,
"Cc1ccc(F)c([C@@H](C)[C@H](NS(=O)(=O)c2ccc(F)c(C#N)c2)c2nn[nH]n2)c1C [Example 37, 3-cyano-4-fluoro-N-((1S,2R)-2-(6-fluoro-2,3-dimethylphenyl)-1-(2H-tetrazol-5-yl)propyl)benzensulfonamide]",4.00 to 4.30,5.30 to 6.00,
"Cc1ccc(F)c([C@@H](C)[C@H](NS(=O)(=O)c2ccc(Cl)cc2C(=O)N(C)C)c2nn[nH]n2)c1C [Example 68, 5-chloro-2-(N-((1S,2R)-2-(6-fluoro-2,3-dimethylphenyl)-1-(2H-tetrazol-5-yl)propyl)sulfamoyl)-N,N-dimethylbenzamide]",4.00 to 4.30,,
"Cc1ccc(F)c([C@@H](C)[C@H](NS(=O)(=O)c2c(Cl)cc(Cl)c3c2OCCN3C)c2nn[nH]n2)c1C [Example 28, 5,7-dichloro-N-((1S,2R)-2-(6-fluoro-2,3-dimethylphenyl)-1-(2H-tetrazol-5-yl)propyl)-4-methyl-3,4-dihydro-2H-benzo[b][1,4]oxazine-8-sulfonamide]",4.00 to 4.30,≥ 7.00,
"Cc1ccc(F)c([C@@H](C)[C@H](NS(=O)(=O)c2ccc(Cl)c3c2OCC[C@@]3(C)O)c2nn[nH]n2)c1C [Example 7, 5-((1S,2R)-1-(((R)-5-chloro-4-hydroxy-4-methylchromane)-8-sulfonamido)-2-(6-fluoro-2,3-dimethylphenyl)propyl)tetrazol-2-ide]",,≥ 7.00,4.30 to 4.52
"COc1c(S(=O)(=O)N[C@H](c2nn[nH]n2)[C@H](C)c2c(F)ccc(C)c2C)ccc(Cl)c1F [Example 73, 4-chloro-3-fluoro-N-((1S,2R)-2-(6-fluoro-2,3-dimethylphenyl)-1-(2H-tetrazol-5-yl)propyl)-2-methoxybenzenesulfonamide]",4.52 to 5.00,6.00 to 7.00,
"Cc1ccc(Cl)c(S(=O)(=O)N[C@H](c2nn[nH]n2)[C@H](C)c2c(F)ccc(C)c2C)c1 [Example 60, 2-chloro-N-((1S,2R)-2-(6-fluoro-2,3-dimethylphenyl)-1-(2H-tetrazol-5-yl)propyl)-5-methylbenzenesulfonamide]",4.00 to 4.30,5.30 to 6.00,
"Cc1ccc(F)c([C@@H](C)[C@H](NS(=O)(=O)c2ccc(Cl)c([C@@H](O)C(=O)N(C)C)c2)c2nn[nH]n2)c1C [Example 57, (R)-2-(2-chloro-5-(N-((1S,2R)-2-(6-fluoro-2,3-dimethylphenyl)-1-(2H-tetrazol-5-yl)propyl)sulfamoyl)phenyl)-2-hydroxy-N,N-dimethylacetamide]",4.00 to 4.30,6.00 to 7.00,
"COc1cc(C#N)ccc1S(=O)(=O)N[C@H](c1nn[nH]n1)[C@H](C)c1c(F)ccc(C)c1C [Example 64, 4-cyano-N-((1S,2R)-2-(6-fluoro-2,3-dimethylphenyl)-1-(2H-tetrazol-5-yl)propyl)-2-methoxybenzenesulfonamide]",4.00 to 4.30,6.00 to 7.00,
"Cc1ccc(F)c([C@@H](C)[C@H](NS(=O)(=O)c2cc(Cl)c(Cl)cc2F)c2nn[nH]n2)c1C [Example 40, 4,5-dichloro-2-fluoro-N-((1S,2R)-2-(6-fluoro-2,3-dimethylphenyl)-1-(2H-tetrazol-5-yl)propyl)benzenesulfonamide]",4.00 to 4.30,5.30 to 6.00,
"COc1c(S(=O)(=O)N[C@H](c2nn[nH]n2)[C@H](C)c2c(F)ccc(C)c2C)ccc(Cl)c1[C@H](C)O (racemic) [Example 16, rac-4-chloro-N-((1R,2S)-2-(6-fluoro-2,3-dimethyphenyl)-1-(2H-tetrazol-5-yl)propyl)-3-((R)-1-hydroxyethyl)-2-methoxybenzenesulfonamide]",4.52 to 5.00,≥ 7.00,
"Cc1ccc(F)c([C@@H](C)[C@H](NS(=O)(=O)c2ccc(Cl)cc2Br)c2nn[nH]n2)c1C [Example 65, 2-bromo-4-chloro-N-((1S,2R)-2-(6-fluoro-2,3-dimethylphenyl)-1-(2H-tetrazol-5-yl)propyl)benzenesulfonamide]",4.52 to 5.00,,
"COc1cc(Cl)ccc1S(=O)(=O)N[C@H](c1nnnn1C)[C@H](C)c1c(F)ccc(C)c1C [Example 34, 4-chloro-N-((1S,2R)-2-(6-fluoro-2,3-dimethylphenyl)-1-(1-methyl-1H-tetrazol-5-yl)propyl)-2-methoxybenzensulfonamide]",4.00 to 4.30,4.52 to 5.30,
"Cc1ccc(F)c([C@@H](C)[C@H](NS(=O)(=O)c2ccc(Cl)c3c2OCCC3)c2nn[nH]n2)c1C [Example 74, 5-chloro-N-((1S,2R)-2-(6-fluoro-2,3-dimethylphenyl)-1-(2H-tetrazol-5-yl)propyl)chromane-8-sulfonamide]",≥ 5.00,≥ 7.00,
"Cc1ccc(F)c([C@@H](C)[C@H](NS(=O)(=O)c2ccc(Cl)cc2N2CCOCC2)c2nn[nH]n2)c1C [Example 78, 4-chloro-N-((1S,2R)-2-(6-fluoro-2,3-dimethylphenyl)-1-(2H-tetrazol-5-yl)propyl)-2-morpholinobenzenesulfonamide]",4.30 to 4.52,6.00 to 7.00,
"Cc1ccc(F)c([C@@H](C)[C@H](NS(=O)(=O)c2ccc(Cl)cc2)c2nn[nH]n2)c1C [Example 33, 4-chloro-N-((1S,2R)-2-(6-fluoro-2,3-dimethylphenyl)-1-(2H-tetrazol-5-yl)propyl)benzenesulfonamide]",4.30 to 4.52,6.00 to 7.00,
"Cc1ccc(F)c([C@@H](C)[C@H](NS(=O)(=O)c2ccc(Cl)cc2F)c2nn[nH]n2)c1C [Example 19, 4-chloro-2-fluoro-N-((1S,2R)-2-(6-fluoro-2,3-dimethylphenyl)-1-(2H-tetrazol-5-yl)propyl)benzenesulfonamide]",4.52 to 5.00,6.00 to 7.00,
"Cc1ccc(F)c([C@@H](C)[C@H](NS(=O)(=O)c2ccc(Cl)cc2NC(C)C)c2nn[nH]n2)c1C [Example 6, 4-chloro-N-((1S,2R)-2-(6-fluoro-2,3-dimethylphenyl)-1-(2H-tetrazol-5-yl)propyl)-2-(isopropylamino)benzenesulfonamide]",4.00 to 4.30,,
"C=Cc1cc(Cl)ccc1S(=O)(=O)N[C@H](c1nn[nH]n1)[C@H](C)c1c(F)ccc(C)c1C [Example 63, 4-chloro-N-((1S,2R)-2-(6-fluoro-2,3-dimethylphenyl)-1-(2H-tetrazol-5-yl)propyl)-2-vinylbenzenesulfonamide]",4.30 to 4.52,,
"Cc1ccc(F)c([C@H](C)[C@H](c2nn[nH]n2)c2c(S(N)(=O)=O)ccc(Cl)c2C#N)c1C [Example 51, 4-chloro-3-cyano-2-((1S,2R)-2-(6-fluoro-2,3-dimethylphenyl)-1-(2H-tetrazol-5-yl)propyl)benzenesulfonamide]",,6.00 to 7.00,
"Cc1ccc(F)c([C@@H](C)[C@H](NS(=O)(=O)c2ccc(Cl)c([C@@H](F)C(=O)N(C)C)c2)c2nn[nH]n2)c1C [Example 66, (R)-2-(2-chloro-5-(N-((1S,2R)-2-(6-fluoro-2,3-dimethylphenyl)-1-(2H-tetrazol-5-yl)propyl)sulfamoyl)phenyl)-2-fluoro-N,N-dimethylacetamide]",4.00 to 4.30,,
"Cc1ccc(F)c(S(=O)(=O)N[C@H](c2nn[nH]n2)[C@H](C)c2c(F)ccc(C)c2C)c1 [Example 52, 2-fluoro-N-((1S,2R)-2-(6-fluoro-2,3-dimethylpehnyl)-1-(2H-tetrazol-5-yl)propyl)-5-methylbenzenesulfonamide]",,5.30 to 6.00,
